The results in this text go back to patent US8022239B2, “Mechanism-based inactivators of autotaxin” (The University of Memphis Research Foundation, priority 2008, dated 2011).

The target of this assay is T1, autotaxin (ATX) (Homo sapiens, UniProt Q13822).
T1 construct: concentrated conditioned serum-free medium (CCM) from MDA MB-435 cells as the source of ATX; endogenous in cells; host or cells: MDA-MB-435 cells (serum-free conditioned medium, concentrated ~10 fold)
Nature of the assay: Autotaxin inactivation analysis: ATX-mediated hydrolysis of FS-3 (fluorescence), concentrated conditioned medium from MDA MB-435 cells as ATX source. The assay is classed as biochemical. Particulars: FS-3 substrate. The method, then: The test protocol was as follows:
MDA-MB-435 cells were cultured at 37° C. and 5% CO2 in Dulbecco's Modified Eagle Medium (DMEM) (MediaTech, Herndon, Va.) containing 5% fetal bovine serum (Hyclone, Logan, Utah), 100 U/ml penicillin, 100 μg/ml streptomycin (Hyclone, Logan, Utah) and 292 μg/ml L-glutamine (Hyclone, Logan, Utah). Cells were grown to ˜80% confluence at which time the cells were washed twice with sterile phosphate buffered saline prior to the addition of serum free DMEM containing L-glutamine. Conditioned medium was collected after 24-30 hours, supplemented with 20% ethylene glycol and was clarified by centrifugation at 3000×g and 4° C. for 10 min. The media was concentrated ˜10 fold and buffer exchanged into Tris (50 mM, pH 7.4) containing 20% ethylene glycol using an Amicon 8050 cell fitted with a PM30 filter (MILLIPORE®, Billerica, Mass.). Aliquots of concentrated conditioned media were stored at 4° C. until needed.
ATX inhibition was assayed using FS-3 (Echelon Biosciences, Inc., Salt Lake City, Utah, USA) as a substrate and ˜10 times concentrated conditioned serum-free medium (CCM) from MDA MB-435 cells as the source of ATX. Assays were performed in 96-well plates with CCM comprising one-third of the total volume and final FS-3 and charcoal-stripped fatty acid free BSA concentrations of 1 and 30 μM in assay buffer (1 mM each CaCl2 and MgCl2, 5 mM KCl, 140 mM NaCl, 50 mM Tris pH 8.0). Fluorescence was read at 5 minute intervals by a Synergy2 system (BioTek, Winooski, Vt.) with excitation and emission wavelengths of 485 and 538 nm, respectively. […] Fluorescence readings were normalized to vehicle control after subtraction of fluorescence in the absence of CCM. Data are shown as the mean±S.D. of at least three wells.

[1] abbreviates: 3 uM, time 0 hour, low % response = effective inhibition.

For `CCCCCCCCCCCCOP(=O)(O)Oc1ccc(C(F)F)cc1` [Example 7, (12:0)-p-difluorophosphodiester], the “Fluorescence (% Response)” value by setting is: under setting [1], 93.9%; (3 uM, time 1 hour) 64.5%; (3 uM, time 3 hours) 48.3%; (3 uM, time 6 hours) 37.0%; (30 uM, time 0 hour) 52.0%; (30 uM, time 1 hour) 36.2%. In addition, the “Fluorescence (% Response)” value reads like this: (30 uM, time 3 hours) 29.4%; (30 uM, time 6 hours) 24.9%.

Turning to `CCCCCCCCCCCCCCOP(=O)(O)Oc1ccc(C(F)F)cc1` [Example 5, (14:0)-p-difluorophosphodiester], the “Fluorescence (% Response)” value is, setting by setting: under setting [1], 92.5%; (3 uM, time 1 hour) 57.1%; (3 uM, time 3 hours) 42.7%; (3 uM, time 6 hours) 31.2%; (30 uM, time 0 hour) 24.5%; (30 uM, time 1 hour) 14.3%. The “Fluorescence (% Response)” value reads like this: (30 uM, time 3 hours) 12.9%; (30 uM, time 6 hours) 9.6%.

Regarding `CCCCCCCCCCCCCCCCOP(=O)(O)Oc1ccccc1CF` [Example 10, (16:0)-o-monofluorophosphodiester], the “Fluorescence (% Response)” value was 86.6% under setting [1]; 29.3% (3 uM, time 1 hour); 10.6% (3 uM, time 3 hours); 4.7% (3 uM, time 6 hours); 0.4% (30 uM, time 0 hour); −16.8% (30 uM, time 1 hour). In addition, the “Fluorescence (% Response)” value is on record as −18.7% (30 uM, time 3 hours) and −17.0% (30 uM, time 6 hours).

For the compound `CCCCCCCCCCCCCCCCOP(=O)(O)Oc1ccc(CF)cc1` [Example 4, (16:0)-p-monofluorophosphodiester], the “Fluorescence (% Response)” value runs as follows: under setting [1], 81.3%; (3 uM, time 1 hour) 50.0%; (3 uM, time 3 hours) 33.3%; (3 uM, time 6 hours) 21.9%; (30 uM, time 0 hour) 26.0%; (30 uM, time 1 hour) 12.5%. Also, the “Fluorescence (% Response)” value reads like this: (30 uM, time 3 hours) 5.2%; (30 uM, time 6 hours) −2.1%.

For the compound `CCCCCCCCCCCCCCCCCCOP(=O)(O)Oc1ccc(C(F)F)cc1` [Example 1, (18:0)-p-difluorophosphodiester], the “Fluorescence (% Response)” value (30 uM, time 0 hour) came out at 96.1% and the “Fluorescence (% Response)” value (100 uM, time 0 hour) stood at 94.1%.

Turning to `CCCCCCCCCCCCCCOP(=O)(O)Oc1ccc(CF)cc1` [Example 6, (14:0)-p-monofluorophosphodiester], the “Fluorescence (% Response)” value was 95.9% under setting [1]; 61.9% (3 uM, time 1 hour); 45.7% (3 uM, time 3 hours); 32.7% (3 uM, time 6 hours); 48.9% (30 uM, time 0 hour); 31.3% (30 uM, time 1 hour). The “Fluorescence (% Response)” value runs as follows: (30 uM, time 3 hours) 25.0%; (30 uM, time 6 hours) 18.5%.

Regarding `CCCCCCCCCCCCOP(=O)(O)Oc1ccc(CF)cc1` [Example 8, (12:0)-p-monofluorophosphodiester], the “Fluorescence (% Response)” value under setting [1] is on record as 99.4%; the “Fluorescence (% Response)” value (3 uM, time 1 hour) stood at 70.0%; the “Fluorescence (% Response)” value (3 uM, time 3 hours) came to 52.2%; the “Fluorescence (% Response)” value (3 uM, time 6 hours) came to 40.6%; the “Fluorescence (% Response)” value (30 uM, time 0 hour) turned out to be 89.1%; the “Fluorescence (% Response)” value (30 uM, time 1 hour) is 63.0%. In addition, the “Fluorescence (% Response)” value is, setting by setting: (30 uM, time 3 hours) 48.4%; (30 uM, time 6 hours) 37.7%.

In the case of `CCCCCCCCCCCCCCCCOP(=O)(O)Oc1ccc(C(F)F)cc1` [Example 3, (16:0)-p-difluorophosphodiester], the “Fluorescence (% Response)” value is 94.8% under setting [1]; 60.4% (3 uM, time 1 hour); 44.8% (3 uM, time 3 hours); 34.4% (3 uM, time 6 hours); 71.9% (30 uM, time 0 hour); 37.5% (30 uM, time 1 hour). Further, the “Fluorescence (% Response)” value (30 uM, time 3 hours) is 19.0%.

As to `CCCCCCCCCCCCCCCCCCOP(=O)(O)Oc1ccc(CF)cc1` [Example 2, (18:0)-p-monofluorophosphodiester], the “Fluorescence (% Response)” value runs as follows: under setting [1], 83.3%; (3 uM, time 1 hour) 47.9%; (3 uM, time 3 hours) 28.1%; (3 uM, time 6 hours) 25.0%; (30 uM, time 0 hour) 57.3%; (30 uM, time 1 hour) 35.4%. The “Fluorescence (% Response)” value is, setting by setting: (30 uM, time 3 hours) 9.4%; (30 uM, time 6 hours) −2.1%.
